Data on three molecules can be found in publication PMC12926254, “Novel pyrazole carboxylate derivatives as lonazolac bioisosteres with selective COX-2 inhibition: design, synthesis and anti-inflammatory activity” (Molecular Diversity, 2025).

Structures are written as SMILES.

The test system of one assay is TNF-α. Description: TNF-α production in LPS-activated RAW 264.7 macrophages (ELISA). The note with it: Mus musculus, RAW264.7, read-out: TNF-α IC50.
The target in another assay is T1, COX-2 (Homo sapiens, UniProt P35354).
T1 construct: purchased Biovision K547
T1 sequence (P35354 18-604): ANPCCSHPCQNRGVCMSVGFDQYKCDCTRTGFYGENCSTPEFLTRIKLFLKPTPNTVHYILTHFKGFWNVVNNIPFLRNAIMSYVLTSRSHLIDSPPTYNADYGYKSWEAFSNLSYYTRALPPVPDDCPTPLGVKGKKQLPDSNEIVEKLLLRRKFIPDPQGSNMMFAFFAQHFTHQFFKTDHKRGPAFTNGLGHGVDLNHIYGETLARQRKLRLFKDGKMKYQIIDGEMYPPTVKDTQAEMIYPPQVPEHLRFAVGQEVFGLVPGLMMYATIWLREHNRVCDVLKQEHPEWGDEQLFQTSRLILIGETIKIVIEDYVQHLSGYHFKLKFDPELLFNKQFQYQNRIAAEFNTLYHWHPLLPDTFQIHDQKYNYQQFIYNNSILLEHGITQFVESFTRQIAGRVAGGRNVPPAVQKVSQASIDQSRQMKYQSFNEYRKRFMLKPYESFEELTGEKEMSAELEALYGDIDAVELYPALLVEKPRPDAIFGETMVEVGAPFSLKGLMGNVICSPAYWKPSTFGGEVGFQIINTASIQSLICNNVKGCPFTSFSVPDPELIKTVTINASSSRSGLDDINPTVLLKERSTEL
The assay is described as follows: In vitro COX-2 inhibition (COX-2 Inhibitor Screening Kit-K547, Biovision). Type of assay: biochemical. The note with it: for IC50: mean of six values ± standard deviation. The protocol:
The IC50 value of the tested compounds was determined.
COX-2 inhibitor Screening Protocol: Dissolve the tested compounds in DMSO. Use COX Assay Buffer to dilute the relevant test concentration by 10X before using. Place 10 µl of diluted test inhibitor or Assay Buffer in the specified wells instead of the sample screen (S) or enzyme control (EC; no inhibitor). […] Before using, combine 2 µl of COX Cofactor with 398 µl of COX Assay Buffer to dilute COX Cofactor 200 times. Blend thoroughly. Just before using, mix 5 µl of the provided arachidonic acid with 5 µl of NaOH to make the arachidonic acid solution. Combine quickly using a vortex. To dilute the arachidonic acid/NaOH solution 10 times, add 90 µl of water. There should be 80 µl of reaction mix in each well. Using a multi-channel pipette, add 10 µl of diluted arachidonic acid/NaOH solution into each well to initiate the reactions concurrently.

The next assay deals with T2, 5-LOX (Homo sapiens, UniProt P09917).
T2 sequence (P09917 1-674): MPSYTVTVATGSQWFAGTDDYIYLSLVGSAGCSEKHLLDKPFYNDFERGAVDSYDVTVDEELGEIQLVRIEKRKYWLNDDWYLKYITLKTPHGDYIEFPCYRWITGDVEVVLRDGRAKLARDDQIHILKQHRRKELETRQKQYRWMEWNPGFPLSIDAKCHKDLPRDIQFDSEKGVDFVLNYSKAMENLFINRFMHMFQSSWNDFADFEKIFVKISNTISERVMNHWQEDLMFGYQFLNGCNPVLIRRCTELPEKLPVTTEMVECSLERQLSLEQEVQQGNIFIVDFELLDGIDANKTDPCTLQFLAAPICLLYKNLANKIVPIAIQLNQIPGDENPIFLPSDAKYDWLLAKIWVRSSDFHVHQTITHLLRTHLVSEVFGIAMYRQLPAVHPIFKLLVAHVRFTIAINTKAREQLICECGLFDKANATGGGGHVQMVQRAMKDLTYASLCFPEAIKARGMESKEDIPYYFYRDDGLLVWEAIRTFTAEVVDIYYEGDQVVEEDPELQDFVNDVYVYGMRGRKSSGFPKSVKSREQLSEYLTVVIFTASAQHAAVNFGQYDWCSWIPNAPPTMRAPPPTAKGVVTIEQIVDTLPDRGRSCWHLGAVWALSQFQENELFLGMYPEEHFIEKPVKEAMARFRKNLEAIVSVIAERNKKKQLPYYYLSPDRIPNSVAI
Description: In vitro 5-LOX inhibition (5-Lipoxygenase Inhibitor Screening Kit K980-100, Biovision).

The next assay has as its system iNOS. Description: Inducible nitric oxide synthase (iNOS) inhibition in LPS-induced RAW 264.7 cells (ELISA). Type of assay: cell-based. The settings on record: Mus musculus, RAW264.7. An excerpt:
NO is produced from L-arginine by iNOS and is utilized in a variety of cell signaling processes. An inducible member of the NOS family, iNOS is increased during pro-inflammatory cytokine activity as a host-defense mechanism. A commercially available quantitative ELISA kit (ab253219 Mouse iNOS Simple Step ELISA® Kit) will be used to evaluate the iNOS enzyme activity of the substances in the cell lysate in accordance with the manufacturer’s instructions.

Description for 5-LOX: 5-LOX inhibitor Screening Protocol: dissolve the test compounds in DMSO. The solution was prepared at a concentration so that the final 100 µl reaction volume per well contains no more than 2 µl of the test chemical solution added to it. Each well was filled in the 96-well white plate with 2 µl of the test substance. […] To the “Enzyme Control” well, was filled with 40 µl of LOX Assay Buffer. In order to run the required number of assays, enough reagents were mixed. 40 µl of the following mix was prepared for each well: Buffer for Reaction MIx LOX Assay 34 µl LOX Probe 2 µl 5. LOX Enzyme 4 µl After thoroughly mixing, the Reaction Mix was transferred to the wells holding the Test Compounds, Enzyme Control, Inhibitor Control, and “Solvent Control.” substrate was added after 10 min of RT incubation of the plate. The wells shouldn’t contain any bubbles. […] To obtain the 5X solution, the 500 X solution with LOX Assay Buffer was diluted at a ratio of 1:100, depending on the number of reactions to be conducted. For each reaction, 20 µl of 5X solution will be required. How much substrate is needed based on the number of reactions. The final substrate functioning solution needs to be consumed that same day and stored on ice. The remaining stock solution should be immediately stored at -20 °C. 20 µl of 5X LOX Substrate should be added with a multichannel pipette to every well. […] To get the RFU for each sample, the RFU was subtracted at time t1 from the RFU at time t2, making sure that both t2 and t1 fall within the assay's linear range. The slope for each sample (including the “enzyme control”)was multiplied by the time Δt (t2 – t1) to find the ΔRFU. In the equations below, the values was substituted for “Solvent Control” for “Enzyme Control” if the two slopes disagree. %Inhibition=[slopeof(enzymecontrol)-slopeof(testcompound)]/slopeof(enzymecontrol)×100 %Relativeactivity=[slope(testcompound)]/slope(enzymecontrol)×100

For the molecule `CCOC(=O)COc1ccc(C2=NN(c3ccc(S(C)(=O)=O)cc3)C(c3ccc(Br)cc3)C2)cc1` (stereo not shown) [Compound 15 h, Ethyl 2-(4-(5-(4-bromophenyl)-1-(4-(methylsulfonyl)phenyl)-4,5-dihydro-1H-pyrazol-3-yl)phenoxy)acetate], the IC50 was 1040 ± 42 nM with TNF-α, 103 ± 3 nM against COX-2, 813 ± 32 nM on 5-LOX and 610 ± 130 nM in the assay on iNOS.

`CCOC(=O)COc1ccc(C2=NN(c3ccc(S(C)(=O)=O)cc3)C(c3ccc(OC)cc3)C2)cc1` (stereo not shown) [Compound 15c, Ethyl 2-(4-(5-(4-methoxyphenyl)-1-(4-(methylsulfonyl)phenyl)-4,5-dihydro-1H-pyrazol-3-yl)phenoxy)acetate]: the IC50 in the assay with TNF-α is 770 ± 25 nM; against COX-2, 397 ± 13 nM; at 5-LOX it was 453 ± 18 nM; with iNOS, 410 ± 60 nM. In addition, on COX-2 (COX-1 IC50/COX-2 IC50), the “COX-2 S.I.” value is listed as 28.56.

As to `CCOC(=O)COc1ccc(C2=NN(c3ccc(S(C)(=O)=O)cc3)C(c3cc(OC)c(OC)c(OC)c3)C2)cc1` (stereo not shown) [Compound 15d, Ethyl 2-(4-(1-(4-(methylsulfonyl)phenyl)-5-(3,4,5-trimethoxyphenyl)-4,5-dihydro-1H-pyrazol-3-yl)phenoxy)acetate], the IC50 was determined as 1200 ± 60 nM with TNF-α, 221 ± 7 nM against COX-2, 241 ± 9 nM against 5-LOX and 531 ± 50 nM in the assay with iNOS.
